Measurements: patent US12006330B2, “Substituted macrocyclic compounds and related methods of treatment” (Alkermes, Inc., priority 2020, dated 2024)

How the values were obtained:
[1] = target: T1, human orexin-2 receptor (OX2R) (Homo sapiens, UniProt O43614); assay: Human OX2R IP1 assay; assay type: cell-based; settings: T-Rex CHO cells stably overexpressing human OX2R; IP1 accumulation; 1 hr at 37 degrees C; mean EC50
T1 construct: expressed in transfected cells
T1 sequence (O43614 1-444): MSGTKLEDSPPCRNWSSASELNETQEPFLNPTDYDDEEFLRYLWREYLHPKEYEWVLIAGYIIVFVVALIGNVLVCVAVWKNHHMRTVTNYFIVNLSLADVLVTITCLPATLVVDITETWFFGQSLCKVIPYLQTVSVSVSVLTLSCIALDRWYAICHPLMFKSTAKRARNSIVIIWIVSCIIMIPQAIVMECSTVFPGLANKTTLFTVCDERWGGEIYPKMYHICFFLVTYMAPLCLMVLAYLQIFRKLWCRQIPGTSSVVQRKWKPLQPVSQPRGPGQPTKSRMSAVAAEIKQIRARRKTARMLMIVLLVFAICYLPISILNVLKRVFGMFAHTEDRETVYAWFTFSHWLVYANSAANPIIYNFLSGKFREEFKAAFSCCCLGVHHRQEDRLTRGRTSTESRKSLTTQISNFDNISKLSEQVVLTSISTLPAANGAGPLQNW
In short: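 T-Rex CHO cells stably expressing human OX2R, doxycycline-induced (1 μg/mL) overnight, treated with compounds 1 h at 37 °C in pH 7.4 buffer with 50 mM LiCl. IP1 accumulation read by HTRF competitive immunoassay after 1 h at room temperature; agonist EC50 reported as mean ± S.E.M.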

Sprague-Dawley rats = assay: Assessment of wake promotion in Sprague-Dawley rats (EEG/EMG); assay type: in vivo, rat; settings: male Sprague-Dawley rats, 3 mpk, dosed at ZT5, 6-hour post-dose period
Description: Wake promotion was assessed using electroencephalography (EEG) and electromyography (EMG) in adult male Sprague-Dawley rats. All rats (Charles River Laboratories, Raleigh, NC, USA) were intraperitoneally implanted with telemetry devices (F50-EEE, Data Sciences International Inc., MN, USA) under isoflurane anesthesia. For EEG, stainless steel screws were implanted over frontal cortex and parietal cortex, and reference screws were placed over cerebellum. Additionally, an electrode was placed in neck muscle for EMG. Rats were given carprofen post-surgery and underwent a 7 to 10-day recovery period. Rats habituated to the experimental room for 7 days and were maintained on a 12-hour light-dark cycle.
EEG and EMG data were recorded using the DSI telemetry system and Ponemah software (Data Sciences International Inc., MN, USA). Sleep-wake stages were scored both manually and with Somnivore, a supervised machine learning software platform, in 10 second epochs. Records were visually inspected as needed post-processing.
All test compounds were dissolved in 5% DMSO and suspended in 95% saline with 0.5% methylcellulose and 0.5% tween. […] Unless otherwise indicated, all compounds were dosed orally. Recordings for each rat were initiated immediately after dosing and lasted for 6 hours post-dose.
Two key endpoints include wakefulness time and cortical activation time. Wakefulness time is derived from the sleep-wake stage analysis. Cortical activation time is based on the duration in which frontal gamma oscillatory activity (30-100 Hz), a key feature of wakefulness, was elevated relative to a pre-treatment baseline. Mean cortical activation time was computed relative to vehicle treatment for the 6-hour post-dose period.

## Cc1ncnc2c1[C@H]1CC[C@H](CC1)OCC1[C@@H](NS(C)(=O)=O)CCCN1C(=O)CO2 (stereo in doubt) [Compound 27]
[1]
  EC50: < 10 nM
Sprague-Dawley rats; PO
  Mean cortical activation time (% vehicle treatment): 138.57 % vehicle treatment

## O=C1COc2ncccc2[C@H]2CC[C@H](CC2)OCC2[C@@H](NS(=O)(=O)C(F)(F)F)CCCN12 (stereo in doubt) [Compound 91]
[1]
  EC50: < 10 nM
Sprague-Dawley rats; PO
  Mean cortical activation time (% vehicle treatment): 151.55 % vehicle treatment

## Cc1ccnc2c1[C@H]1CC[C@H](CC1)OCC1[C@@H](NS(=O)(=O)C(F)(F)F)CCN1C(=O)CO2 (stereo in doubt) [Compound 94]
[1]
  EC50: < 10 nM
Sprague-Dawley rats; PO
  Mean cortical activation time (% vehicle treatment): 152.81 % vehicle treatment

## O=C1COc2cccc(F)c2[C@H]2CC[C@H](CC2)OCC2[C@@H](NS(=O)(=O)C(F)(F)F)CCCN12 (stereo in doubt) [Compound 95]
[1]
  EC50: < 10 nM
Sprague-Dawley rats; PO
  Mean cortical activation time (% vehicle treatment): 312.26 % vehicle treatment

## O=C1COc2nccnc2[C@H]2CC[C@H](CC2)OCC2[C@@H](NS(=O)(=O)C(F)(F)F)CCCN12 (stereo in doubt) [Compound 98]
[1]
  EC50: < 10 nM
Sprague-Dawley rats; PO
  Mean cortical activation time (% vehicle treatment): 84.91 % vehicle treatment

## Cc1ncnc2c1[C@H]1CC[C@H](CC1)OCC1[C@@H](NS(=O)(=O)C(F)(F)F)CCCN1C(=O)CO2 (stereo in doubt) [Compound 99]
[1]
  EC50: < 10 nM
Sprague-Dawley rats; PO
  Mean cortical activation time (% vehicle treatment): 97.17 % vehicle treatment

## O=C1COc2ccccc2[C@H]2CC[C@H](CC2)OCC2[C@@H](NS(=O)(=O)C(F)(F)F)CCN12 (stereo in doubt) [Compound 100]
[1]
  EC50: < 10 nM
Sprague-Dawley rats; PO
  Mean cortical activation time (% vehicle treatment): 265.17 % vehicle treatment

## Cc1cccc2c1[C@H]1CC[C@H](CC1)OC[C@H]1[C@@H](NS(C)(=O)=O)CCN1C(=O)CO2 [Compound 20]
[1]
  EC50: < 10 nM
Sprague-Dawley rats; PO
  Mean cortical activation time (% vehicle treatment): 154.26 % vehicle treatment

## CC(C)S(=O)(=O)N[C@H]1CCN2C(=O)COc3c(F)cc(F)cc3[C@H]3CC[C@H](CC3)OC[C@@H]12 [Compound 29]
[1]
  EC50: < 10 nM
Sprague-Dawley rats; PO
  Mean cortical activation time (% vehicle treatment): 214.61 % vehicle treatment

## COC(=O)N1CCC[C@H](NS(C)(=O)=O)[C@@H]1CO[C@H]1CC[C@@H](c2ccccc2)CC1 [Reference Compound A, methyl (2R,3S)-3-((methylsulfonyl)amino)-2-(((cis-4-phenylcyclohexyl)oxy)methyl)-piperidine-l-carboxylate, reference compound]
[1]
  EC50: < 10 nM
Sprague-Dawley rats; SC
  Mean cortical activation time (% vehicle treatment): 118.75 % vehicle treatment

## CC(C)(O)C(=O)N1CC[C@H](NS(C)(=O)=O)[C@@H]1Cc1cccc(-c2cc(F)cc(F)c2)c1F [Reference Compound B, N-((2S,3S)-1-(2-hydroxy-2-methylpropanoy1)-2-((2,3′,5′-trifluorobipheny1-3-yl)methyl)pyrrolidin-3-yl)methanesulfonamide, reference compound]
[1]
  EC50: 10 to 1000 nM
Sprague-Dawley rats; PO
  Mean cortical activation time (% vehicle treatment): 110.4 % vehicle treatment
